# Source: patent publication US20250241971A1 (priority 2022, published 2025)
# Legend:
# [1] = tested on: broiler chickens; conditions: in vivo
# [2] = tested on: Ruminants; conditions: in feed; cited from earlier work
# [3] = tested on: pig jejunum explants
# [4] = tested on: il8 and ifnγ genes; conditions: in vivo
# [5] = tested on: Poultry; conditions: in vivo; cited from earlier work
# [6] = tested on: broiler chickens; conditions: in vivo; remark: listed apart in the source
smiles,measurement,setting,value
"CC1=C[C@H]2O[C@@H]3[C@H](O)C[C@](C)([C@@]2(CO)[C@H](O)C1=O)[C@]31CO1 [DON, Deoxynivalenol]",lesions in the liver,[1],induces a strong increase in lesions in the liver
same,macroscopic appearance of the liver,[1],"appears paler, slightly yellower; a hemorrhagic lesion is clearly visible"
same,feed concentration up to which little sensitivity appears,[2],up to 12 mg/kg of feed
same,number of lesions on the tissue,[3],increases the number of lesions on the tissue
same,decrease in villus length,[3]; pig,approximately 35%
same,il8 mRNA expression in jejunum,[4],strong increase
same,interferon gamma (ifnγ) mRNA expression in jejunum,[4],strong increase
same,concentration from which first zootechnical effects are observed,[5],≥ 5 mg of DON per kilogram of feed
same,size (height) of intestinal villi of the jejunum,[6],induces a reduction in the size of the intestinal villi of the jejunum
